In patent US20080269174A1 (priority 2005, published 2008):
Where “and” joins values, the source holds several entries; their conditions need not be identical. Equal values may be shown once. Read-outs that look alike come from different tables or passages of the source.

Experiments:
Test in all cases: microbe, parasite or virus in culture
Format in all cases: cell-based
Pythium ultimum = system: Pythium ultimum
Pyrenophora graminea = details: for % activity observed: 72 hrs
Fusarium graminearum = details: for % activity observed: 48 hrs
Rhizoctonia solani = details: 72 h, read-out: % activity observed
Ustilago nuda = system: Ustilago nuda
Monographella nivalis = details: for % activity observed: 72 hrs
Gaeumannomyces graminis = details: for % activity observed: 72 hrs
[1] = Globisporangium ultimum, 48 h, read-out: % activity observed
[2] = Pyrenophora graminea, 72 h, read-out: % activity observed
[3] = Fusarium graminearum, 48 h, read-out: % activity observed, 10 ppm applied alone
[4] = Ustilago nuda, 48 h, read-out: % activity observed
[5] = Monographella nivalis, 72 h, read-out: % activity observed
[6] = Gaeumannomyces graminis, 72 h, read-out: % activity observed

SMILES: CC1COC(Cn2cncn2)(c2ccc(Oc3ccc(Cl)cc3)cc2Cl)O1 (stereo not shown) [Difenconazole, Difenoconazole]
- inhibition at 0.014 ppm (Pythium ultimum; [1]): 5%
- inhibition at 0.041 ppm (Pythium ultimum; [1]): 0%
- inhibition at 0.123 ppm (Pythium ultimum; [1]): 0%
- inhibition at 0.37 ppm (Pythium ultimum; [1]): 0%
- inhibition at 1.111 ppm (Pythium ultimum; [1]): 0%
- inhibition at 3.333 ppm (Pythium ultimum; [1]): 0%
- inhibition at 10 ppm (Pythium ultimum; [1]): 7%
- inhibition at 0.014 ppm (Pyrenophora graminea; [2]): 20%
- inhibition at 0.041 ppm (Pyrenophora graminea; [2]): 29%
- inhibition at 0.123 ppm (Pyrenophora graminea; [2]): 41%
- inhibition at 0.37 ppm (Pyrenophora graminea; [2]): 70%
- inhibition at 1.111 ppm (Pyrenophora graminea; [2]): 86%
- inhibition at 3.333 ppm (Pyrenophora graminea; [2]): 87%
- inhibition at 10 ppm (Pyrenophora graminea; [2]): 86%
- inhibition at 0.014 ppm (Fusarium graminearum; Fusarium graminearum, 48 h, read-out: % activity observed, 0.014 ppm applied alone): 8%
- inhibition at 0.041 ppm (Fusarium graminearum; Fusarium graminearum, 48 h, read-out: % activity observed, 0.041 ppm applied alone): 6%
- inhibition at 0.123 ppm (Fusarium graminearum; Fusarium graminearum, 48 h, read-out: % activity observed, 0.123 ppm applied alone): 14%
- inhibition at 0.37037 ppm (Fusarium graminearum; Fusarium graminearum, 48 h, read-out: % activity observed, 0.3703704 ppm applied alone): 16%
- inhibition at 1.11111 ppm (Fusarium graminearum; Fusarium graminearum, 48 h, read-out: % activity observed, 1.1111111 ppm applied alone): 34%
- inhibition at 3.33333 ppm (Fusarium graminearum; Fusarium graminearum, 48 h, read-out: % activity observed, 3.3333333 ppm applied alone): 73%
- inhibition at 10 ppm (Fusarium graminearum; [3]): 92%
- inhibition at 0.014 ppm (Rhizoctonia solani): 5%
- inhibition at 0.041 ppm (Rhizoctonia solani): 0%
- inhibition at 0.123 ppm (Rhizoctonia solani): 27%
- inhibition at 0.37 ppm (Rhizoctonia solani): 30%
- inhibition at 1.111 ppm (Rhizoctonia solani): 84%
- inhibition at 3.333 ppm (Rhizoctonia solani): 88%
- inhibition at 10 ppm (Rhizoctonia solani): 84%
- inhibition at 0.014 ppm (Ustilago nuda; [4]): 4%
- inhibition at 0.041 ppm (Ustilago nuda; [4]): 0%
- inhibition at 0.123 ppm (Ustilago nuda; [4]): 0%
- inhibition at 0.37 ppm (Ustilago nuda; [4]): 0%
- inhibition at 1.111 ppm (Ustilago nuda; [4]): 0%
- inhibition at 3.333 ppm (Ustilago nuda; [4]): 0%
- inhibition at 10 ppm (Ustilago nuda; [4]): 60%

SMILES: COCC(=O)N(c1c(C)cccc1C)[C@H](C)C(=O)OC [Mefenoxam]
- % activity observed (Monographella nivalis): 0%
- % activity observed (Pyrenophora graminea): 0% and 5%
- % activity observed (Gaeumannomyces graminis): 0% and 4% and 3%
- % activity observed (Fusarium graminearum; 0.014 ppm applied alone): 6%
- % activity observed (Fusarium graminearum; 0.041 ppm applied alone): 0%
- % activity observed (Fusarium graminearum; 0.123 ppm applied alone): 0%
- % activity observed (Fusarium graminearum; 0.370 ppm applied alone): 0%
- % activity observed (Fusarium graminearum; 1.111 ppm applied alone): 0%
- % activity observed (Fusarium graminearum; 3.333 ppm applied alone): 2%
- % activity observed (Fusarium graminearum; 10.000 ppm applied alone): 1%
- % activity observed (Ustilago nuda; 48 hrs): 0% and 2% and 5% and 8%

SMILES: CC(C)(C)C(O)(CCc1ccc(Cl)cc1)Cn1cncn1 (stereo not shown) [Tebuconazole]
- % activity observed (Monographella nivalis): 6%
- inhibition at 0.014 ppm (Monographella nivalis; [5]): 9%
- inhibition at 0.041 ppm (Monographella nivalis; [5]): 3%
- inhibition at 1.111 ppm (Monographella nivalis; [5]): 0%
- inhibition at 3.333 ppm (Monographella nivalis; [5]): 62%
- inhibition at 10 ppm (Monographella nivalis; [5]): 94%
- % activity observed (Pythium ultimum; 48 hrs): 2% and 4% and 0%
- inhibition at 0.123 ppm (Pythium ultimum; [1]): 1%
- inhibition at 10 ppm (Pythium ultimum; [1]): 22%
- % activity observed (Pyrenophora graminea): 54% and 89% and 74%
- inhibition at 0.041 ppm (Pyrenophora graminea; [2]): 17%
- inhibition at 0.123 ppm (Pyrenophora graminea; [2]): 48%
- inhibition at 0.37 ppm (Pyrenophora graminea; [2]): 57%
- inhibition at 1.111 ppm (Pyrenophora graminea; [2]): 77%
- inhibition at 3.333 ppm (Pyrenophora graminea; [2]): 87%
- inhibition at 10 ppm (Pyrenophora graminea; [2]): 94%
- % activity observed (Gaeumannomyces graminis): 100%
- inhibition at 0.041 ppm (Gaeumannomyces graminis; [6]): 16%
- inhibition at 0.123 ppm (Gaeumannomyces graminis; [6]): 64%
- inhibition at 0.37 ppm (Gaeumannomyces graminis; [6]): 97%
- inhibition at 1.111 ppm (Gaeumannomyces graminis; [6]): 98%
- inhibition at 3.333 ppm (Gaeumannomyces graminis; [6]): 98%
- inhibition at 10 ppm (Gaeumannomyces graminis; [6]): 96%
- % activity observed (Fusarium graminearum; 0.014 ppm applied alone): 3% and 1%
- % activity observed (Fusarium graminearum; 0.041 ppm applied alone): 11% and 5% and 9%
- % activity observed (Fusarium graminearum; 0.370 ppm applied alone): 34% and 39%
- % activity observed (Fusarium graminearum; 1.111 ppm applied alone): 62% and 55%
- % activity observed (Fusarium graminearum; 3.333 ppm applied alone): 88%
- % activity observed (Fusarium graminearum; 10.000 ppm applied alone): 95% and 97%
- inhibition at 0.0137 ppm (Fusarium graminearum; Fusarium graminearum, 48 h, read-out: % activity observed, 0.0137 ppm applied alone): 0%
- inhibition at 0.0412 ppm (Fusarium graminearum; Fusarium graminearum, 48 h, read-out: % activity observed, 0.0412 ppm applied alone): 7%
- inhibition at 0.1235 ppm (Fusarium graminearum; Fusarium graminearum, 48 h, read-out: % activity observed, 0.1235 ppm applied alone): 16%
- inhibition at 0.37 ppm (Fusarium graminearum; Fusarium graminearum, 48 h, read-out: % activity observed, 0.370 ppm applied alone): 37%
- inhibition at 0.3704 ppm (Fusarium graminearum; Fusarium graminearum, 48 h, read-out: % activity observed, 0.3704 ppm applied alone): 33%
- inhibition at 1.111 ppm (Fusarium graminearum; Fusarium graminearum, 48 h, read-out: % activity observed, 1.111 ppm applied alone): 50%
- inhibition at 1.1111 ppm (Fusarium graminearum; Fusarium graminearum, 48 h, read-out: % activity observed, 1.1111 ppm applied alone): 66%
- inhibition at 3.333 ppm (Fusarium graminearum; Fusarium graminearum, 48 h, read-out: % activity observed, 3.333 ppm applied alone): 98%
- inhibition at 3.3333 ppm (Fusarium graminearum; Fusarium graminearum, 48 h, read-out: % activity observed, 3.3333 ppm applied alone): 94%
- inhibition at 10 ppm (Fusarium graminearum; [3]): 94%
- inhibition at 10 ppm (Fusarium graminearum; Fusarium graminearum, 48 h, read-out: % activity observed, 10.000 ppm applied alone): 100%
- inhibition at 3.333 ppm (Rhizoctonia solani): 96%
- inhibition at 10 ppm (Rhizoctonia solani): 100%
- inhibition at 0.014 ppm (Ustilago nuda; [4]): 0%
- inhibition at 0.041 ppm (Ustilago nuda; [4]): 0%
- inhibition at 10 ppm (Ustilago nuda; [4]): 26%
